Source: ChEMBL document CHEMBL1201862, “PubChem BioAssay data set” (2004)
Where a name gives a salt, the structure may show the parent alone. Activity calls are given as the source filed them.

Columns and labels:
[1] = molecular target: T1, Low molecular weight phosphotyrosine protein phosphatase (Homo sapiens, UniProt P24666); assay type: functional; conditions: read-out: IC50_Mean
T1 sequence (P24666 whole entry): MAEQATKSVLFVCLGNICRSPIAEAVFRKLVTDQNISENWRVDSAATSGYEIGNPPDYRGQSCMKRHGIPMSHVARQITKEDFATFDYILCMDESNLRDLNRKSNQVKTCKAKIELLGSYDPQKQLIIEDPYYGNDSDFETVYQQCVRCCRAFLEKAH

[2] = molecular target: T1, Low molecular weight phosphotyrosine protein phosphatase; assay type: functional; conditions: read-out: IC50_Mean; remark: listed apart in the source
[3] = molecular target: Tyrosine-protein phosphatase non-receptor type 11 (Homo sapiens, UniProt Q06124); test: PTPN11 enzyme inhibitors – biochemical, selectivity assay for STEP inhibitor project, dose response (AID 602367); assay type: functional; conditions: read-out: IC50_Mean
Sequence of Tyrosine-protein phosphatase non-receptor type 11 (Q06124 whole entry): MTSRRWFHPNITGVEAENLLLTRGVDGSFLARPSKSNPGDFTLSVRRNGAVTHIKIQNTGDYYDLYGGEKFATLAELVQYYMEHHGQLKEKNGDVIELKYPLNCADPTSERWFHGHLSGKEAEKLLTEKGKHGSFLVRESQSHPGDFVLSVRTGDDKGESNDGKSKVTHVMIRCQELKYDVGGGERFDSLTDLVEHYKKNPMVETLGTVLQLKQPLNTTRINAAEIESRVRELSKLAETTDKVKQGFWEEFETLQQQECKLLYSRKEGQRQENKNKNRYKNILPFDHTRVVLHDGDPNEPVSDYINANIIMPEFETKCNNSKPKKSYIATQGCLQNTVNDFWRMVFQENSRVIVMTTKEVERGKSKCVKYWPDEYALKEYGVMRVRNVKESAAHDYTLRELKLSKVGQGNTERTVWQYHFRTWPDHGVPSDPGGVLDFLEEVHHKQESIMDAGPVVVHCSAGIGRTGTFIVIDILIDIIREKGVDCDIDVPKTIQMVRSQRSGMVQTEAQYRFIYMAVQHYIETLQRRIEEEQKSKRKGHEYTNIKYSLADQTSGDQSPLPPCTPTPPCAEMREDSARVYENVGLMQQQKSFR

[4] = viability of PTEN-deleted HCT116 cells – cell-based, HCT116 PTEN knockout, dose response (AID 1047); assay type: functional;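 further: HCT116 colon tumor cells with PTEN knocked out; cells exposed to compound for 60 hours before readout; potency for loss of cell viability measured by luminescence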
[5] = viability of HCT116 lacking mutant beta-catenin – cell-based, human colon tumor, dose response (AID 1045); assay type: functional;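 further: HCT116 colon tumor cells with beta catenin knocked out; cells exposed to compound for 60 hours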
[6] = molecular target: Dual specificity protein phosphatase 3 (Homo sapiens, UniProt P51452); test: VHR phosphatase inhibition, dose response, selectivity assay for STEP inhibitor project, biochemical (AID 602374); assay type: functional; conditions: read-out: IC50_Mean
Sequence of Dual specificity protein phosphatase 3 (P51452 whole entry): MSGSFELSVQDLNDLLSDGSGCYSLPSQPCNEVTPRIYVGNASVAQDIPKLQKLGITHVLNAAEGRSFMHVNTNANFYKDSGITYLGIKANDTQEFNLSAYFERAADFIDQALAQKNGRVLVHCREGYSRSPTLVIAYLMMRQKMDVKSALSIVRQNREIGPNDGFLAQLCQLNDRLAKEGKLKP

[7] = molecular target: T2, Tyrosine-protein phosphatase non-receptor type 22 (Homo sapiens, UniProt Q9Y2R2); test: lymphoid phosphatase LYP inhibitors – biochemical, selectivity assay for STEP inhibitor project, dose response (AID 624241); assay type: functional
T2 sequence (Q9Y2R2 whole entry): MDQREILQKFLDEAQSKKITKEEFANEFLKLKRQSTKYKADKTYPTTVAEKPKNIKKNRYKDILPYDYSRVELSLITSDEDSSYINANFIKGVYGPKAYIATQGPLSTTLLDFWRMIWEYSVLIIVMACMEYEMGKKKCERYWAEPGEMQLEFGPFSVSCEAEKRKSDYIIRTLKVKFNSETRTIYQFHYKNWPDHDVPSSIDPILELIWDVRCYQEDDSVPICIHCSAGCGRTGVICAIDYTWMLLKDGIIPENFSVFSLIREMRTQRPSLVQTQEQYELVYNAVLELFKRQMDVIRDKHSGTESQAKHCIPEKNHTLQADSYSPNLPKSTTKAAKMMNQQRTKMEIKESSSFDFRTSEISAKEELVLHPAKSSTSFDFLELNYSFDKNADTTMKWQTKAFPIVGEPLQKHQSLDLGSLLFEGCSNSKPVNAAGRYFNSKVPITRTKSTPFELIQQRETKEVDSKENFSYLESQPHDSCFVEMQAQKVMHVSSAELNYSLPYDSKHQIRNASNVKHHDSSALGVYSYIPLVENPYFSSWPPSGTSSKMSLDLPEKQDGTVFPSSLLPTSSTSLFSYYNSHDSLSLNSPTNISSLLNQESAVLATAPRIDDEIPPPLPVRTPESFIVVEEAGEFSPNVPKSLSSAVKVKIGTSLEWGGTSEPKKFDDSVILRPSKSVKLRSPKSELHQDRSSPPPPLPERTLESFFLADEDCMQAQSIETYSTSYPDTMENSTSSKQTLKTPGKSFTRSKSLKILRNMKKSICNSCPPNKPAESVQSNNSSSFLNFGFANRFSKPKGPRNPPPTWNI

[8] = molecular target: Tyrosine-protein phosphatase non-receptor type 5 (Homo sapiens, UniProt P54829); test: PTPN5 enzyme inhibition – biochemical, fluorescence intensity, uHTS hits, confirmation (AID 602372); assay type: functional; conditions: read-out: IC50_Mean
Sequence of Tyrosine-protein phosphatase non-receptor type 5 (P54829 whole entry, the tested form may be a part): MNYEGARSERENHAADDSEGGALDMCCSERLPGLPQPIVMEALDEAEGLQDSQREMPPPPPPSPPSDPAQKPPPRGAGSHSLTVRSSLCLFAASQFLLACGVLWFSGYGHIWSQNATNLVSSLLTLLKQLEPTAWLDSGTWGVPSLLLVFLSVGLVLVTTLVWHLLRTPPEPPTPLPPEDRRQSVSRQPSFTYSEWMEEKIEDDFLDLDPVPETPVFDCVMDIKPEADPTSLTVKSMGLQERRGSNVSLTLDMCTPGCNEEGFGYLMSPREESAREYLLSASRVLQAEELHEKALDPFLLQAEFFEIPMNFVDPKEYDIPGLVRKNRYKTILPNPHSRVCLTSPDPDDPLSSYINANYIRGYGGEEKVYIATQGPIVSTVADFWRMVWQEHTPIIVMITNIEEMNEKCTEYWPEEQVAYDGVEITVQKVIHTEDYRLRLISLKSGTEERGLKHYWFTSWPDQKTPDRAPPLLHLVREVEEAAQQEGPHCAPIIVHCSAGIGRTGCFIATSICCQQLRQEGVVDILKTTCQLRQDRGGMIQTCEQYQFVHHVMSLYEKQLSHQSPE

[9] = molecular target: Hepatocyte nuclear factor 4-alpha (Homo sapiens, UniProt P41235); assay type: functional, cell-based;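 further: biochemical luminescence-based dose-response counterscreen measuring inhibition of HNF4 dimerization, run alongside a screen for blockers of ABHD5–perilipin-5 interaction; split luciferase complementation of HNF4 fusion proteins in cell lysate measuring dimerization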
Sequence of Hepatocyte nuclear factor 4-alpha (P41235 whole entry, the tested form may be a part): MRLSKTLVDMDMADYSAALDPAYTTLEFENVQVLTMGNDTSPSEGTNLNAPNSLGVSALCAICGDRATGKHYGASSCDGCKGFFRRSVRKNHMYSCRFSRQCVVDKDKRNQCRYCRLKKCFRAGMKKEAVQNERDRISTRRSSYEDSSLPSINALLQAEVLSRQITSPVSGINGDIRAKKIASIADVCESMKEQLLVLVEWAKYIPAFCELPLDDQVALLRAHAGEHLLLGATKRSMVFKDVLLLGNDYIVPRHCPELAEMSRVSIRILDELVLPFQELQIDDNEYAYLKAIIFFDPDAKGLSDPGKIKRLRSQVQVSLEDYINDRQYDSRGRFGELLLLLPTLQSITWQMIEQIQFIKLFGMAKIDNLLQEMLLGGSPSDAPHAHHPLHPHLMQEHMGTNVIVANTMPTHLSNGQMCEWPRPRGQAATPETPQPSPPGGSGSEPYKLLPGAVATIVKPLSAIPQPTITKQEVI

[10] = molecular target: Potassium voltage-gated channel subfamily KQT member 2 (Rattus norvegicus, UniProt O88943); test: blockers of KCNQ2 channel current – cell-based, automated electrophysiology, set II, rat KCNQ2, dose response (AID 588637); assay type: functional
Sequence of Potassium voltage-gated channel subfamily KQT member 2 (O88943 whole entry): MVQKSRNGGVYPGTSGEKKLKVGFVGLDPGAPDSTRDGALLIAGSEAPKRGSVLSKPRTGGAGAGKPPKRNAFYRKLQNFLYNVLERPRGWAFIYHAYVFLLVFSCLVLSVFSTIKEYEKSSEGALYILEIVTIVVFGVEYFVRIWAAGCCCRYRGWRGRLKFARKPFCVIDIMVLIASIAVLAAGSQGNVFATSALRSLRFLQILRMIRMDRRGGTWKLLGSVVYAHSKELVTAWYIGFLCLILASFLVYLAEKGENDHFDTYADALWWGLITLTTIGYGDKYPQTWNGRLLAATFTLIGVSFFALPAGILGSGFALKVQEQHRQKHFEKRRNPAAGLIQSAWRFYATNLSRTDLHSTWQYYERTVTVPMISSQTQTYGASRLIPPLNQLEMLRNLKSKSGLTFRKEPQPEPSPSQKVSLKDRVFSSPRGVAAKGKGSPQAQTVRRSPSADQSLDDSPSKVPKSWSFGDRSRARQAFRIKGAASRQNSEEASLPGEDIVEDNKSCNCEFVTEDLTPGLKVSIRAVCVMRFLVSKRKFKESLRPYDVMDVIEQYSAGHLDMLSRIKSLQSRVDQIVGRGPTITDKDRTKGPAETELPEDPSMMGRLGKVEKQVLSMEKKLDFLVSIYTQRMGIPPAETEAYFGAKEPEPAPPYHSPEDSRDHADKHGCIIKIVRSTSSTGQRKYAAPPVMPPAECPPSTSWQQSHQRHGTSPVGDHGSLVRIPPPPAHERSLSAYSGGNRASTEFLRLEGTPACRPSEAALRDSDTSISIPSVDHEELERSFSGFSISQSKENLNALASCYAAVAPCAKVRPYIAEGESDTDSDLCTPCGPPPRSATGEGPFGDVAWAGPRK

[11] = molecular target: Mitochondrial peptide methionine sulfoxide reductase (Bos taurus, UniProt P54149); test: Absorbance-based biochemical high throughput dose response assay for activators of Methionine sulfoxide reductase A (MsrA).; assay type: functional
Sequence of Mitochondrial peptide methionine sulfoxide reductase (P54149 whole entry): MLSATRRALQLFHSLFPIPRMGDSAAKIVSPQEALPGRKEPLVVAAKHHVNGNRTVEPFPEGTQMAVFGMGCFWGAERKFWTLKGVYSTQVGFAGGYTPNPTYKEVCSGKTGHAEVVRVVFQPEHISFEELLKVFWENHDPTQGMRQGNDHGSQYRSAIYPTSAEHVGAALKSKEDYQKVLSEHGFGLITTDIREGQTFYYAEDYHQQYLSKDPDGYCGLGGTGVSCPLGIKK

[12] = molecular target: Beta-lactamase (Salmonella choleraesuis (strain SC-B67), UniProt Q5J463); test: Epi-absorbance-based counterscreen for selective VIM-2 inhibitors: dose response biochemical high throughput screening assay to identify inhibitors of TEM-1 serine-beta-lactamase.
Sequence of Beta-lactamase (Salmonella choleraesuis (strain SC-B67), UniProt Q5J463) (Q5J463 whole entry): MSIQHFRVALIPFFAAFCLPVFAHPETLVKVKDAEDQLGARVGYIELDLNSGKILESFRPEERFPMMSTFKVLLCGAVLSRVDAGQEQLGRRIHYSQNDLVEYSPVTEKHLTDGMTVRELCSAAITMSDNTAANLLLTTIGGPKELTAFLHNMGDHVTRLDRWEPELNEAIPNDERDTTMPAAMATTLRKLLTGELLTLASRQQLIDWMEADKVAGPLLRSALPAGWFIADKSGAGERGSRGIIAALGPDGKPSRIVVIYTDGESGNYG

[13] = molecular target: T3, Beta-lactamase (Pseudomonas aeruginosa, UniProt Q79MP6); test: […] counterscreen for selective VIM-2 inhibitors: dose response biochemical high throughput screening assay to identify inhibitors of IMP-1 metallo-beta-lactamase.
T3 sequence (Q79MP6 whole entry): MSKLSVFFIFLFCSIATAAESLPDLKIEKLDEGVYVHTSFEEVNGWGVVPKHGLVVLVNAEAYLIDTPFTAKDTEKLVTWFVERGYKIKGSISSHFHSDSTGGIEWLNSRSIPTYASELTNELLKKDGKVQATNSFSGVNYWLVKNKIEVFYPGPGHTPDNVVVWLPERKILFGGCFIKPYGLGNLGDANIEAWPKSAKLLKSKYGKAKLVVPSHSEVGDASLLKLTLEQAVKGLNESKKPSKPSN

[14] = molecular target: T3, Beta-lactamase; test: inhibition of IMP-1 beta-lactamase activity – biochemical, epi-absorbance, selectivity assay for VIM-2 inhibitor project, dose response (AID 1920)
[15] = IGROV1 cell killing – plate reader, dry powder samples, PAX8 inhibitor project, dose response (AID 743043); assay type: functional, cell-based; conditions: IGROV-1
[16] = viability loss in LCL cells – cell-based, plate reader, dry powder, set 2, cytotoxicity control, dose response (AID 624367); assay type: functional
[17] = molecular target: Paired box protein Pax-8 (Homo sapiens, UniProt Q06710); test: PAX8 transcriptional activity inhibition in RMG-I – RMG-I cells, luciferase, cherry-pick, dose response (AID 687027); assay type: functional, cell-based;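 further: luciferase reporter driven by Pax8 target thyroperoxidase promoter measured by SteadyGlo luminescence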
Sequence of Paired box protein Pax-8 (Q06710 whole entry): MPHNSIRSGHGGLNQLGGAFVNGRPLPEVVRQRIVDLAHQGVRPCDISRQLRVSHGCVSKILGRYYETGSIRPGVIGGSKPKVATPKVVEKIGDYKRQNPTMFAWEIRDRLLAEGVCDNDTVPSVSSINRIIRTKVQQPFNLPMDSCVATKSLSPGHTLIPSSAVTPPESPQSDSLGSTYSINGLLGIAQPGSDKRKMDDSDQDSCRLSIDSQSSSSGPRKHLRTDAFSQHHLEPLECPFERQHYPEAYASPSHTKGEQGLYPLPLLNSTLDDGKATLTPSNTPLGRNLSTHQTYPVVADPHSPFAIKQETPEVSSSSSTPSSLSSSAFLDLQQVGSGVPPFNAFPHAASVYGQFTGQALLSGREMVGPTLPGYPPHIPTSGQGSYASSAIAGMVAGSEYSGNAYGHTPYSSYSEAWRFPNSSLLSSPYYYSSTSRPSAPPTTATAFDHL

[18] = cytotoxicity in HEK293 background cells – cell-based, dry powder, set 2, counter-screen for EBV LMP1 inhibitor project, dose response (AID 624374); assay type: functional
[19] = TNFa-induced NF-kB reporter signal decrease – HEK293 LMP1 reporter cells, dry powder, set 2, selectivity assay for EBV LMP1 NF-kB inhibitor project, dose response (AID 624369); assay type: functional

Compound: Cc1nc(N)nc(N)c1-c1ccc([N+](=O)[O-])cc1
- IC50 [1]: 12.3 µM (active)
- IC50 [2]: 11.7 µM (active)

Compound: CCOc1ccc(C(=O)Nc2cc(-c3nc4ccccc4[nH]3)ccc2Cl)cc1[N+](=O)[O-]
- IC50 [3]: 2.14 µM (active)
- EC50 [4]: 8.7 µM (active)
- EC50 [5]: 8.99 µM (active)
- IC50 [6]: 3.11 µM (active)
- IC50 [7]: 29.9 µM (inactive)
- IC50 [8]: 6.73 µM (active)

Compound: CCOc1cc(N)c(Cl)cc1C(=O)NCC1CN(Cc2ccc(F)cc2)CCO1 (centres undefined) [MOSAPRIDE CITRATE]
- IC50 [9]: 12.7 µM (inactive)

Compound: COc1ccc(CCN(C)C(=O)c2cc(-c3ccccc3)nc3ccc(C)cc23)cc1OC
- IC50 [10]: 0.478 µM (active)

Compound: CO/N=C/c1ccc(N2CCCC2)c([N+](=O)[O-])c1
- EC50 [11]: > 104 µM (inactive)

Compound: Cc1c(C)c2c(OCC(=O)N3CCC[C@H]3C(=O)O)cc3c(c2oc1=O)CCC(C)(C)O3
- IC50 [12]: > 59.6 µM (inactive)
- IC50 [13]: > 59.6 µM (inactive)
- IC50 [14]: > 59.6 µM (inactive)

Compound: O=C(C[C@H]1CC[C@H]2[C@@H](COC[C@@H](O)CN2Cc2ccc3c(c2)OCO3)O1)Nc1ccc(-c2ccccc2)cc1
- AC50 [15]: 63.5 µM (active)
- AbsAC35 [16]: 77.89 µM
- AC50 [17]: 5.67 µM (active)
- AbsAC35 [18]: 148.97 µM
- AbsAC35 [19]: 57.32 µM
